{"source": "patent US20120021992A1", "about": "“METHODS FOR IMPROVING NEUROLOGICAL OUTCOME AFTER NEURAL INJURY AND NEURODEGENERATIVE DISEASE” (Henry Ford Health System, priority 2009, published 2012)", "key": {"[1]": {"test_system": "stroke (middle cerebral artery occlusion (MCAo)) rats", "assay": "Embolic middle cerebral artery occlusion (MCAo) stroke model", "type": "in vivo, rat", "description": "(§1) Effectiveness of treatment with thymosin β4 was tested in stroke (middle cerebral artery occlusion (MCAo)) rats and in experimental autoimmune encephalomyelitis (EAE) mice (a well-established in vivo model for multiple sclerosis). Both the stroke rats and the EAE mice were treated with 6 mg/kg thymosin β4 intraperitoneally (IP) in a volume of 0.3 mL twenty-four hours after stroke or after the day of immunization in the EAE model and then every three days (6 mg/kg IP) for four additional doses. An equal volume of saline was administered (IP) to a group of both stroke rats and EAE mice as a control. Bromodeoxyuridine (BrdU; 100 mg/kg) was administered (IP) daily for seven days, initiated 24 hours after MCAo to label proliferating cells. Behavioral tests (adhesive removable test and NSS (Neurological Severity Score)) were performed immediately before treatment and at days 1, 7, 14, 21, 28, 35, 42, 49, and 56 days after MCAo and up to 30 days in the EAE mouse model. All rats were sacrificed 56 days after MCAo; EAE mice were sacrificed at 30 days."}, "[2]": {"test_system": "experimental autoimmune encephalomyelitis (EAE) mice", "assay": "Experimental autoimmune encephalomyelitis (EAE) model of multiple sclerosis", "type": "in vivo, mouse", "conditions": "6 mg/kg IP, up to 30 days, versus control, p<0.01 (FIG. 9)", "description": "as §1"}, "[3]": {"conditions": "embolic stroke rats, 6 mg/kg IP, versus saline control"}}, "data": [{"substance": "thymosin β4", "values": [{"measurement": "number of myelinated axons", "setting": "[1]; after MCAo, Bielschowsky and Luxol Fast Blue staining, p<0.05 (FIG. 4)", "value": "increased"}, {"measurement": "cellular proliferation (BrdU expression, number of BrdU immunoreactive cells)", "setting": "[1]; after MCAo, p<0.05 (FIG. 8)", "value": "also increased"}, {"measurement": "number of oligodendrocyte progenitors and matured oligodendrocytes", "setting": "[1]; after MCAo, p<0.05 (FIGS. 5-7)", "value": "increased"}, {"measurement": "functional outcome by behavioral tests (adhesive removal test, NSS)", "setting": "[1]; beginning at 21 days after stroke onset, 6 mg/kg IP, p<0.05 (FIG. 1-2)", "value": "Significant functional improvement"}, {"measurement": "relative increase in BrdU expression in the striatum or myelinated region of the rat brain", "setting": "[1]; embolic stroke rats, 6 mg/kg IP from 24 h after MCAo, then every three days for four additional doses, versus saline control", "value": 42, "unit": "%"}, {"measurement": "increase in CNP, a marker of mature oligodendrocytes", "setting": "[1]; [3]", "value": 11, "unit": "%"}, {"measurement": "increase in NG-2, a marker of immature oligodendrocytes", "setting": "[1]; [3]", "value": 47, "unit": "%"}, {"measurement": "functional neurological score", "setting": "[2]", "value": "robust improvement"}]}]}
